Activity calls are given as the source filed them. The rule behind the calls is not given here.
Molecular target: Heat shock protein HSP 90-alpha (Homo sapiens) (UniProt P07900)
Experiment: tumor Hsp90 inhibitor potency, dose response (AID 712)
Settings: Hsp90 inhibition assay

Structure (SMILES) | IC50
O=C(O)c1cc(O)c2c(c1)C(=O)c1cccc(O)c1C2=O | 3.34 µM
c1ccc2[nH]c(SCc3ccc(-c4nnco4)cc3)nc2c1 | > 50 µM (inactive)
CCOc1ccc(S(=O)(=O)Nc2cc(Sc3ncn[nH]3)c3oc(=O)sc3c2)cc1 | inactive
CCOc1cc(N2CCOCC2)c(OCC)cc1NC1=NCCCCC1 | 13 µM
COc1ccc(C2=NO[C@@H]3C(=O)N(c4ccc5c(c4)OCCO5)C(=O)[C@H]23)cc1OC | 29.7 µM
Cc1[nH]c2c(N)cccc2c1C | > 50 µM (inactive)
COc1cccc(C(=O)NCC(=O)n2nc(C)cc2C)c1 | > 50 µM (inactive)
Nc1ccc(Nc2nc3ccccc3s2)c(O)c1 | > 50 µM (inactive)
O=C1C(=Cc2ccccn2)CNCC1=Cc1ccccn1 | > 50 µM (inactive)
Nc1cc2ccccc2c(O)c1O | < 1.56 µM
Cc1nc(SCC(=O)c2ccc(O)cc2O)n[nH]1 | > 50 µM (inactive)
O=S(=O)(Nc1ccc(O)c(-c2c(O)ccc3ccccc23)c1)c1ccccc1 | 13 µM
CCOC(=O)NC1(Nc2ccc(Cl)cn2)Oc2ccccc2O1 | > 50 µM (inactive)
COc1cc(NCCCC(C)=O)c2nccc(Cl)c2c1 | > 50 µM (inactive)
Nc1cc(N)nc(SCC(=O)Nc2nncs2)n1 | > 50 µM (inactive)
CCc1cc(-c2[nH]ncc2-c2ccc3c(c2)OCO3)c(O)cc1O | 1.97 µM
N#Cc1cc(S(=O)(=O)Nc2ccc(F)c(-c3c(O)ccc4c3OCO4)c2)ccc1F | 25 µM
O=[N+]([O-])c1ccc(NS(=O)(=O)c2ccccc2)c(O)c1 | > 50 µM (inactive)
CCOc1ccc2ccccc2c1-c1cc(NS(=O)(=O)c2cc(Cl)ccc2Cl)ccc1N | > 50 µM (inactive)
C=CCn1c(NC(=O)c2ccccc2Cl)c(C#N)c2nc3ccccc3nc21 | > 50 µM (inactive)
CCn1nc(-c2ccccc2)nc2c(=O)n(C)c(=O)nc1-2 | 0.136 µM
CC(=O)c1cccc(NC(=O)CSc2nnc(-c3ccc(S(=O)(=O)N4CCCC4)cc3)o2)c1 | > 50 µM (inactive)

Structure (SMILES) | IC50
COc1ccc2c(c1-c1cc(NS(=O)(=O)c3cccc(N)c3)ccc1N)OCO2 | > 50 µM (inactive)
O=C(NCc1cccnc1)C1c2ccccc2C(=O)N1Cc1ccco1 (configuration not stated) | > 50 µM (inactive)
CC(C)NCCCCCNc1cc(O)cc2cccnc12 | 6.25 µM
O=c1c(-c2ccc3c(c2)OCCO3)coc2c(CN3CCOCC3)c(O)ccc12 | > 50 µM (inactive)
O=C(O)CCC(=O)NCc1ccc2[nH]c3c(c2c1)CCCC3 | > 50 µM (inactive)
N#C/C(=C\c1ccc(O)c(O)c1)C(=O)NCCCc1ccccc1 | 19.1 µM
Cc1ccc(S(=O)(=O)C(CCC(=O)N2CCOCC2)S(=O)(=O)c2ccc(C)cc2)cc1 | > 50 µM (inactive)
COC(=O)c1cc(=O)[nH]c2ccc(C)cc12 | > 50 µM (inactive)
CC1=CC(C#N)(C#N)C(C#N)(C#N)C(c2ccccc2)N1 (configuration not stated) | 7.38 µM
Nc1c(S(=O)(=O)c2cccc(Cl)c2)c2nc3ccccc3nc2n1/N=C/c1ccc(O)c(O)c1 | > 50 µM (inactive)
O=[N+]([O-])c1cc(O)cc2cccnc12 | 1.56 µM
O=S(=O)(Nc1cc(O)cc2cccnc12)c1ccc(F)cc1 | 11.2 µM
CCn1nnc(NC(=O)COc2cc(C)ccc2C(C)C)n1 | > 50 µM (inactive)
COc1cccc2c1C(=O)c1c(O)c3c(c(O)c1C2=O)C[C@@](O)(C(C)=O)C[C@@H]3O[C@H]1C[C@H](N)[C@H](O)[C@H](C)O1 | 0.174 µM
O=C(O)c1ccccc1C1=Nc2ccc(O)cc2Oc2cc(O)ccc21 | 13 µM
Cc1nc(-c2c(-c3ccc(O)cc3O)noc2C(F)(F)F)cs1 | 16.5 µM
Cn1c(=O)c2c(nc(NCc3ccc4c(c3)OCO4)n2C)n(C)c1=O | > 50 µM (inactive)
Cc1noc(C(=O)Nc2ccc3c(c2)OCO3)c1Cl | 22.5 µM
CC(=O)Oc1cc2c(C(=O)NCCCN3CCOCC3)c(C)oc2c2ccccc12 | 4.65 µM
Nc1cc(N)c2cccnc2c1O | 3.13 µM
CN(C)[C@@H]1C(=O)C(C(N)=O)=C(O)[C@@]2(O)C(=O)C3=C(O)c4c(O)cccc4[C@@](C)(O)[C@H]3C[C@@H]12 | 22.4 µM
Cc1ccc(S(=O)(=O)Nc2ccc(O)c(-c3ccccc3O)c2)cc1 | > 50 µM (inactive)

Structure (SMILES) | IC50
O=S(=O)(NC1CCc2ccccc21)c1ccc(S(=O)(=O)N2CCCC2)cc1 (configuration not stated) | > 50 µM (inactive)
O=C(NC1(C(F)(F)F)Oc2ccc(Cl)cc2O1)N1CCC2(CC1)OCCO2 (configuration not stated) | 23.4 µM
O=C(c1n[nH]c(=O)c2ccccc12)N1CCN(C2c3ccccc3-c3ccccc32)CC1 | > 50 µM (inactive)
CCOC(=O)Cc1c[nH]c2ccc(N)cc12 | > 50 µM (inactive)
CCSc1nnc2c(n1)OC(c1ccc(C(=O)O)cc1)N(C(C)=O)c1ccccc1-2 (configuration not stated) | > 50 µM (inactive)
Nc1nc2c(s1)CCc1c-2cnn1-c1ccccc1 | 11.2 µM
CC(=O)CCCNc1c(OCc2ccccc2)ccc2c(C)cc(=O)oc12 | > 50 µM (inactive)
CCOc1ccc2ccccc2c1-c1cc(NS(=O)(=O)c2cc(Cl)ccc2Cl)ccc1NC(=O)OC(C)(C)C | > 50 µM (inactive)
O=c1oc2c3c4c(cc2s1)CCCN4CCC3 | > 50 µM (inactive)
CCc1cc(C(=O)Cn2cnc3ccccc32)c(O)cc1O | > 50 µM (inactive)
COc1cc(NCCCC(C)=O)c2nccc(OCc3ccccc3)c2c1 | > 50 µM (inactive)
Cn1c(=O)c2c(nc(Oc3ccc4c(c3)OCO4)n2Cc2ccc(Cl)cc2)n(C)c1=O | > 50 µM (inactive)
Nc1cccc(S(=O)(=O)Nc2ccc(N)c(-c3ccccc3O)c2)c1 | > 50 µM (inactive)
O=S(=O)(Nc1ccc(Cl)cc1O)c1ccccc1 | > 50 µM (inactive)
COc1cc(NCCCC(C)N)c2ncccc2c1 (configuration not stated) | > 50 µM (inactive)
Nc1ccc(NS(=O)(=O)c2ccccc2)c(O)c1 | > 50 µM (inactive)
Cc1ccc(S(=O)(=O)Nc2cc(O)cc3cccnc23)cc1 | > 50 µM (inactive)
CCOc1ccc2ccccc2c1-c1cc(NS(=O)(=O)c2ccc(OC)c(OC)c2)ccc1N | > 50 µM (inactive)
CCOC(=O)c1cnc(SC2CCc3ccccc3C2=O)nc1N (configuration not stated) | 15.1 µM
O=C(COc1ccccc1Cl)c1ccc(O)cc1O | > 50 µM (inactive)
CCCCn1c(NC(=O)c2ccco2)c(C(=O)OCC)c2nc3ccccc3nc21 | > 50 µM (inactive)
COc1cccc2c1C(=O)c1c(O)c3c(c(O)c1C2=O)C[C@@](O)(C(=O)CO)C[C@@H]3O[C@H]1C[C@H](N)[C@H](O)[C@H](C)O1 | 0.266 µM

Structure (SMILES) | IC50
N#Cc1c(N2CCCC2)nc(N)c2c(N)nc(N3CCCC3)cc12 | 2.41 µM
O=C(NC1(O)C(=O)c2ccccc2C1=O)c1ccccc1 | 19.5 µM
O=C(c1ccc2ccccc2c1)N1CCN(c2ccc(O)cc2)CC1 | > 50 µM (inactive)
Nc1cc(=O)[nH]c(SCC(=O)c2ccc3c(c2)OCO3)n1 | > 50 µM (inactive)
O=S(=O)(Nc1cc(OCc2ccccc2)cc2cccnc12)c1ccc(F)cc1 | > 50 µM (inactive)
COc1cc(C2CC(c3ccccc3O)=NN2)ccc1O (configuration not stated) | > 50 µM (inactive)
COc1cc(NCCCC(C)=NO)c2nccc(OCc3ccccc3)c2c1 | > 50 µM (inactive)
COc1ccc2c(c1-c1cc(NS(=O)(=O)c3cc(Cl)ccc3Cl)ccc1N)OCO2 | > 50 µM (inactive)
Cc1cccc(NC(=O)Cn2nnc(-c3cccs3)n2)c1C | > 50 µM (inactive)
O=C(OC1CCc2ccccc2C1=O)c1ccccc1O (configuration not stated) | > 50 µM (inactive)
O=C(Nc1nc(-c2ccc3c(c2)OCO3)cs1)C1COc2ccccc2O1 (configuration not stated) | > 50 µM (inactive)
CCOC(=O)c1c(C)[nH]c2ccc(O)cc12 | > 50 µM (inactive)
O=C1C(c2cnc3c(n2)CCC=C3)=C(O)c2ccccc21 | > 50 µM (inactive)
CCc1cc(C(=O)Cc2cscn2)c(O)cc1O | > 50 µM (inactive)
CCOc1ccc(S(=O)(=O)Nc2ccc3c(c2)OCO3)c2cccnc12 | 16 µM
Cc1coc2c(O)cc3c(c12)OC1(N2CCCCC2)C(=O)NCCCC31 (configuration not stated) | 6.62 µM
C=CCNC(=O)CN(c1cccc(Br)c1)S(C)(=O)=O | > 50 µM (inactive)
CC(C)CN1C(=O)NC(NC(=O)c2ccco2)(C(F)(F)F)C1=O (configuration not stated) | > 50 µM (inactive)
CC(Cc1ccc(O)c(O)c1)C(C)Cc1ccc(O)c(O)c1 (configuration not stated) | 2.62 µM
Nc1cc(Cl)cc2cccnc12 | > 50 µM (inactive)
Nc1cc(=O)c2n[nH]nc2[nH]1 | > 50 µM (inactive)
COc1ccc(C2=NO[C@@H]3C(=O)N(c4c(C)cccc4C)C(=O)[C@H]23)cc1OC | 25.4 µM

Structure (SMILES) | IC50
COc1ccc(N2C(=O)CSC23C(=O)N2CCCc4cccc3c42)cc1 (configuration not stated) | > 50 µM (inactive)
Cc1ccc(NC(=O)CC2SCCNC2=O)cc1Cl (configuration not stated) | > 50 µM (inactive)
CCOC(=O)c1sc(NC(=O)CSc2nnc(-c3ccc(OC)cc3)n2CCOC)nc1C | > 50 µM (inactive)
Nc1cc(N)nc(SCC(=O)Nc2nonc2N)n1 | > 50 µM (inactive)
O=c1cc(NCCCO)c2ccccc2o1 | > 50 µM (inactive)
O=C(COc1ccc(-c2ccccc2)cc1)N1CCN(C(=O)c2cccnc2)CC1 | > 50 µM (inactive)
Nc1ccc(NS(=O)(=O)c2cccc([N+](=O)[O-])c2)cc1-c1ccccc1O | > 50 µM (inactive)
CCN(CC)CCCCCNc1cc(O)cc2cccnc12 | 6.25 µM
Nc1ccc(Cc2ccccc2)c(O)c1 | > 50 µM (inactive)
Nc1ccc(CSc2ccc(Cl)cc2)c(O)c1 | > 50 µM (inactive)
Nc1cc(N)nc(SCCOc2ccccc2F)n1 | > 50 µM (inactive)
CC(=O)c1ccc(NC(=O)CSc2nnc(Cc3cccn3C)n2-c2ccc(F)cc2)cc1 | > 50 µM (inactive)
Cc1ccc(CNc2ccc(O)cc2)cc1 | inactive
COc1ccccc1-c1nnc2n1N=C(c1ccc(O)c(O)c1)CS2 | 10.7 µM
Cn1ncnc2c(=O)n(C)c(=O)nc1-2 | 0.238 µM
COc1ccc(-c2nc(CS(=O)CC(=O)NCc3ccccn3)c(C)o2)cc1 (configuration not stated) | 19.3 µM
CCCC(C)N(CC)CCNc1cc(OC)cc2cccnc12 (configuration not stated) | 12.5 µM
CCCc1cc(-c2[nH]ncc2-c2ccc3c(c2)OCCCO3)c(O)cc1O | 12.2 µM
COc1ccc2c3c(cccc13)NN=C2C | 8.36 µM

From PubChem BioAssay AID712 (Emory University Molecular Libraries Screening Center, 2007)
